Results on one compound are retold here after PMC4941645, “Oxidative Stress Induced by Pt(IV) Pro-drugs Based on the Cisplatin Scaffold and Indole Carboxylic Acids in Axial Position” (Scientific Reports, 2016).

Each structure is given as a SMILES string. pIC50: −log10 of the molar value.

The test has as its system panel of human tumor cell lines (BxPC3, HCT-15, MCF-7, A431, A549, A375). Put plainly: MTT cytotoxicity, mean over panel of human tumor cell lines. It counts as cell-based. To be noted: mean over the six cell lines of Table 1, 72 h. Here is the method:
The cytotoxic activity of the complexes and of the uncoordinated ligands was evaluated by the MTT test on a panel of human tumor cell lines containing examples of pancreatic (BxPC3), colorectal (HCT-15), breast (MCF-7), cervical (A431), and lung (A549) cancers as well as of melanoma (A375). For comparison purposes, the cytotoxicity of cisplatin was evaluated under the same experimental conditions.
The growth inhibitory effect toward tumor cells was evaluated by means of the MTT assay. Briefly, (3–8) × 10^3 cells/well, dependent upon the growth characteristics of the cell line, were seeded in 96-well microplates in growth medium (100 μL). After 24 h, the medium was removed and replaced with fresh medium containing the compound to be studied at the appropriate concentration. Triplicate cultures were established for each treatment. After 24, 48, or 72 h, each well was treated with 10 μL of a 5 mg/mL MTT saline solution and, after 5 h of incubation, 100 μL of a sodium dodecylsulfate (SDS) solution in 0.01 M HCl was added. After an overnight incubation, cell growth inhibition was detected by measuring the absorbance of each well at 570 nm using a Bio-Rad 680 microplate reader. The mean absorbance for each drug dose was expressed as a percentage of the control, untreated well absorbance and plotted vs drug concentration. The IC50 values, the drug concentrations that decrease the mean absorbance at 570 nm to 50% of that of untreated control wells, were calculated from the dose–response curves with the four-parameter logistic model (4PL). The final value is the mean ± S.D. of at least three independent experiments performed in triplicate.

As to `[NH2][Pt]([NH2])([OH])([Cl])([Cl])[O]C(=O)CCc1c[nH]c2ccccc12` [Complex 1P, cis,cis,trans-[Pt(NH3)2Cl2(IPA)(OH)]], the pIC50 (usually the negative decadic logarithm of the IC50, by convention in mol/L) was around 5.60.
